The target of one test is T1, SHIP2 enzyme (Homo sapiens, UniProt O15357).
T1 construct: purchased Echelon Biosciences (Salt Lake City, Utah)
T1 sequence (O15357 1-1258): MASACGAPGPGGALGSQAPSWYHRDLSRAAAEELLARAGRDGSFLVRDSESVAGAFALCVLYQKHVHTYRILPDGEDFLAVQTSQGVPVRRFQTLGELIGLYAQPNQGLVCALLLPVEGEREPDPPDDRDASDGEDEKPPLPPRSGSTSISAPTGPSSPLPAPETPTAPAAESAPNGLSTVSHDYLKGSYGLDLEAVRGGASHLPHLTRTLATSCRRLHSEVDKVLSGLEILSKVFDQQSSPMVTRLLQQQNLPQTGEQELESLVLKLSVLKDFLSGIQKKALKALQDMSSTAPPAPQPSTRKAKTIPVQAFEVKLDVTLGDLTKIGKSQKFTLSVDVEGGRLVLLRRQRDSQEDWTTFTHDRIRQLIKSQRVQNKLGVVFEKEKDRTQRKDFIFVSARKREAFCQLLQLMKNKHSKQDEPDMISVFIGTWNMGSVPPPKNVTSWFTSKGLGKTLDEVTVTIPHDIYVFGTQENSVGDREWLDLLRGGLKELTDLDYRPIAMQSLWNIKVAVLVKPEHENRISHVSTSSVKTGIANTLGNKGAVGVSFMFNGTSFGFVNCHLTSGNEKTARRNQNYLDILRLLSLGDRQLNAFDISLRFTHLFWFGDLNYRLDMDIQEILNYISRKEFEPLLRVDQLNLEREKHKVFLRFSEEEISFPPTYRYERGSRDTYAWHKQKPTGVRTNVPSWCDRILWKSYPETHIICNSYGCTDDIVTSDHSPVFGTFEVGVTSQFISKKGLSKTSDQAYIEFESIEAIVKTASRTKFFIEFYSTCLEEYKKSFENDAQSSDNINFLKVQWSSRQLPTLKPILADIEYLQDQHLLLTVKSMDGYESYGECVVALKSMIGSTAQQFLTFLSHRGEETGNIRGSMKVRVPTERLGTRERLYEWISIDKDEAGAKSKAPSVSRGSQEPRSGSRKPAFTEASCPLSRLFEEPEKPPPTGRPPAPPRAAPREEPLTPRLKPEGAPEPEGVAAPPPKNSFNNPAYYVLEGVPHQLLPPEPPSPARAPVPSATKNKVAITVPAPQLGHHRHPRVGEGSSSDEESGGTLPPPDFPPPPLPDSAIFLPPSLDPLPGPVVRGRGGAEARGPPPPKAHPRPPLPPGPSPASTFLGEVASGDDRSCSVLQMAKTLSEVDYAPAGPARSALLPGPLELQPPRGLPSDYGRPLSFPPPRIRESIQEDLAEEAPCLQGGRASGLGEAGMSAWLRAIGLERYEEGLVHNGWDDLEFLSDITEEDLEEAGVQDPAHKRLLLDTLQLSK
As to the kind of experiment: In vitro SHIP enzyme assay, SHIP2. The test is classed as biochemical. The conditions noted are these: FIG. 1B. The protocol:
In vitro SHIP enzyme assay. The SHIP enzyme assay was performed in 96-well microtitre plates with 10 ng of enzyme/well in a total volume of 25 μL of 20 mM Tris HCl, pH 7.5 and 10 mM MgCl2. SHIP1 enzyme was incubated with test extracts (provided in DMSO) or vehicle for 15 mM at 23° C. before the addition of 100 μM inositol-1,3,4,5-tetrakisphosphate (Echelon Biosciences Inc, Salt Lake City, Utah). The reaction was allowed to proceed for 20 min at 37° C. and the amount of inorganic phosphate released assessed by the addition of Malachite Green reagent followed by an absorbance measurement at 650 nm (15). SHIP2 enzyme was purchased from Echelon Biosciences (Salt Lake City, Utah) and an equivalent amount of inositol phosphatase activity was used in the in vitro enzyme assay. Enzyme data are expressed as the mean of triplicates+/−SEM. Experiments were performed at least 3 times.

For a further test, the system named is J16 cells. Description: Inositol phospholipid analysis in LPS-stimulated macrophages. The test is classed as cell-based, mouse. How it is done:
Inositol phospholipid analysis. J16 cells, a macrophage cell line immortalized from C57B16 mice, were grown in 10% FCS in IMDM supplemented with 10 μM 2-mercaptoethanol, 150 μM monothioglycolate (MTG) and 1 mM glutamine. 5×10^6 cells were plated the night before in 10 cm tissue culture dishes. The next day, cells were washed three times with phosphate-free medium before being starved in phosphate free RPMI (MP Biomedicals, Irvine, Calif.) supplemented with 10% dialyzed FCS (Invitrogen, Burlington, Ont) and 1% RPMI for 2 hrs. Cells were then labeled with 1.0 mCi of ^32P-labeled orthophosphate (MP Biomedicals, Irvine, Calif.)/ml for 2 hrs at 37° C. Cells were pretreated for 30 mM with AQX-016A, LY294004 or vehicle prior to stimulation with LPS (50 ng/ml) for 15 min. Extraction of inositol phospholipids and HPLC analysis of deacylated lipids were performed as described previously (16). The amount of radioactivity contained in the elution peak for each lipid (two to five fractions) was summed to give the total counts for each lipid, and data were normalized to the first 60 fractions to adjust for fluctuations in total lipid labeling and recovery between samples. Data are expressed as the mean+/− the SEM of three independent replicates for each stimulation condition and the experiment was repeated twice.

In the case of `Cc1cc(O)c(O)c2c1[C@]1(C)CC[C@H]3C(C)(C)CCC[C@]3(C)[C@H]1C2` [AQX-016A], the “activation of SHIP1 versus SHIP2” value at SHIP2 enzyme is listed as “preferentially activates SHIP1 over SHIP2”. Further, the “PIP3 levels after LPS stimulation” value in the test on J16 cells (30 min pretreatment with 5 mg/mL AQX-016A or 25 μM LY294002, LPS 15 min) is recorded as “abolished this increase”. For the same molecule, the “PI-3,4-P2 levels after LPS stimulation” value in the test with J16 cells (30 min pretreatment with AQX-016A or 25 μM LY294002, LPS 15 min) was “corresponding increase”.

For the origin of these results see patent publication US8956824B2, “Methods for identifying allosteric modulators of ship polypeptides” (British Columbia Cancer Agency Branch, priority 2006, dated 2015).
